Results taken from US4975447A, “6-hydroxyethoxy-2-benzothiazolesulfonamide and topical treatment compositions and method for glaucoma” (University of Iowa Research Foundation, priority 1985, dated 1990).
Values joined by “and” are separate entries in the source; they are usually repeats but may differ in a detail not shown here. Equal entries are not always repeated.

Legend:
[1] = tested on: eyes of rabbits (intraocular pressure); test: Measurement of intraocular pressure ("Salted Rabbit Test"), applanation tonometry, topical 1% suspension; type: in vivo; settings: for Ave. change in IOP: 50 μl of 1% suspension q 2 min x 3
Protocol: ("Salted Rabbit Test") (IOP)
Rabbits (3-4 months old) were maintained on […] solution in place of drinking water for 3 weeks prior to the determination of IOP because it has been shown that a diet deficient in sodium produces a variable response to this class of drugs. During this 3 week period numerous IOP measurements were made to familiarize the rabbits with this procedure. Baseline IOP measurements were determined by applanation tonometry following topical administration of 3 drops of 1% suspension of analog CAI inhibitor to one eye. The fellow eye received blank vehicle. The observer was masked. Each eye received 1 to 2 drops of proparacaine hydrochloride (0.5%) to anethetize the cornea prior to placing the sensor tip of the tonometer flot on the cornea. IOP measurements were determined over 180 minutes at 20 minute intervals. Changes in IOP were expressed as:
IOP change=IOP (dosed eye - control eye)t -IOP (dosed eye prior to
administration - control eye)t=O
Intraocular pressure (IOP) measurements of 6-hydroxyethoxy-2-benzothiazole sulfonamide in rabbits^a maintained on 3% sodium chloride drinking water following topical instillation.^b,c
^b The dose was 50 μl of a 1% suspension q 2 minutes for a total of 3 doses

[2] = tested on: lasered eyes of cynomologous monkeys (intraocular pressure); test: Intraocular pressure by pneumatonometry, "DeSantis" test, laser-treated hypertensive right eye (OD); type: in vivo, cynomologous monkey; settings: for IOP (individual monkey) / Mean IOP / Mean % change of IOP / Mean % change of IOP versus control: OD (lasered)
Description: (§1) Because there are certain differences in the eyes of rabbits and man, it was desired to test topical carbonic anhydrase inhibition by the compound of the present invention in a subhuman primate species to confirm the presence of activity by this route. The cynomologous monkey was chosen to represent the species. Because drug effects on intraocular pressure are sometimes less dramatic or not demonstrable using an eye that is normotensive, a test protocol known as the "DeSantis" test was developed. It involves testing the carbonic anhydrase inhibitor effects in eyes made hypertensive by laser treatment. […] After the eye was allowed to recover from the inflammatory process which accompanied the laser treatment, it was used to test the subject drugs.
(§2) Intraocular pressure (IOP) was determined using an Alcon Pneumatonograph after light corneal anesthesia with proparacaine, before and at 1, 3 and 7 hours after installation of drug to both eyes of each of six cynomologous monkeys per group. […] Animals were trained to sit in restraint chairs and to accept the pressure measurement. Following the measurement, residual anesthetic was washed out with saline.
(§3) Data for the intraocular pressure studies are presented in the attached tables, where the lasered eyes but not the normal eyes show significant reduction of intraocular pressure compared to control animals.
(§4) In the tables below "OD" refers to ocular dexter, and "OS" refers to ocular sinnister. This is simply another way of saying right and left eye. The designation number in the lefthand column of each table refers to the designation number assigned to each monkey. "SE" refers to standard error.

[3] = tested on: normal eyes of cynomologous monkeys (intraocular pressure); test: Intraocular pressure by pneumatonometry, normal left eye (OS); type: in vivo, cynomologous monkey
Description: as §1, §2, §3, §4

[4] = Table 1, 1.0% gel, 0 hr (before drug)
[5] = Table 2 (six days later), 1.0% gel, 0 hr (before drug)
[6] = Table 2 (six days later), 1.0% gel, 3 hr
[7] = Table 2 (six days later), 1.0% gel, 7 hr
[8] = Table 3, 3.0% gel, 0 hr (before drug)
[9] = Table 4, 3.0% gel, 0 hr (before drug)
[10] = Table 4, 3.0% gel, 0 hr (before drug), listed as 6-Hydroxyethoxy-2-benzothiazolesulfomaide
[11] = Table 4, 3.0% gel, 1 hr, listed as 6-Hydroxyethoxy-2-benzothiazolesulfomaide
[12] = Table 4, 3.0% gel, 3 hr, listed as 6-Hydroxyethoxy-2-benzothiazolesulfomaide
[13] = Table 4, 3.0% gel, 7 hr, listed as 6-Hydroxyethoxy-2-benzothiazolesulfomaide

NS(=O)(=O)c1nc2ccc(OCCO)cc2s1 [6-hydroxyethoxy-2-benzothiazolesulfonamide]
Ave. change in IOP ([1]; 20 min after dosing, N=12, probability N.S.): -0.2 mm Hg
Ave. change in IOP ([1]; 40 min after dosing, N=12, probability 0.07): -1.1 mm Hg
Ave. change in IOP ([1]; 60 min after dosing, N=12, probability 0.04): -1.1 mm Hg
Ave. change in IOP ([1]; 80 min after dosing, N=12, probability 0.12): -0.8 mm Hg
Ave. change in IOP ([1]; 100 min after dosing, N=12, probability 0.04): -1.2 mm Hg
Ave. change in IOP ([1]; 120 min after dosing, N=12, probability N.S.): -0.5 mm Hg
Ave. change in IOP ([1]; 140 min after dosing, N=12, probability N.S.): 0.2 mm Hg
Ave. change in IOP ([1]; 160 min after dosing, N=12, probability N.S.): 0.3 mm Hg
Ave. change in IOP ([1]; 180 min after dosing, N=12, probability N.S.): -0.2 mm Hg
effectiveness for topical treatment of glaucoma (in words) ([1]; rabbits): an effective treating composition for topical treatment of glaucoma
Ave. change in IOP ([1]; time 0 (baseline), N=12 rabbits): 0 mm Hg
IOP (individual monkey) [2, 4]: 28 mmHg and 46 mmHg and 35 mmHg and 48 mmHg and 38 mmHg and 25 mmHg
Mean IOP [2, 4]: 36.7 mmHg
IOP (individual monkey) ([2]; Table 1, 1.0% gel, 3 hr): 23 mmHg and 36 mmHg and 30 mmHg and 40 mmHg and 34 mmHg
Mean % change of IOP ([2]; Table 1, 1.0% gel, 3 hr): -14.9%
Mean IOP ([2]; Table 1, 1.0% gel, 3 hr): 31.0 mmHg
IOP (individual monkey) ([2]; Table 1, 1.0% gel, 7 hr): 24 mmHg and 46 mmHg and 33 mmHg and 41 mmHg and 34 mmHg and 25 mmHg
Mean % change of IOP ([2]; Table 1, 1.0% gel, 7 hr): -7.5%
Mean IOP ([2]; Table 1, 1.0% gel, 7 hr): 33.8 mmHg
IOP (individual monkey) [2, 5]: 51 mmHg and 52 mmHg and 34 mmHg and 38 mmHg and 28 mmHg and 30 mmHg
Mean IOP [2, 5]: 38.8 mmHg
IOP (individual monkey) [2, 6]: 38 mmHg and 50 mmHg and 29 mmHg and 35 mmHg and 27 mmHg and 26 mmHg
Mean % change of IOP [2, 6]: -11.5%
Mean IOP [2, 6]: 34.2 mmHg
IOP (individual monkey) [2, 7]: 36 mmHg and 48 mmHg and 28 mmHg and 37 mmHg and 24 mmHg and 32 mmHg
Mean % change of IOP [2, 7]: -10.8%
Mean IOP [2, 7]: 34.2 mmHg
IOP (individual monkey) [2, 8]: 50 mmHg and 35 mmHg and 33 mmHg and 55 mmHg and 40 mmHg and 44 mmHg
Mean IOP [2, 8]: 42.8 mmHg
IOP (individual monkey) ([2]; Table 3, 3.0% gel, 1 hr): 45 mmHg and 33 mmHg and 30 mmHg and 52 mmHg and 35 mmHg and 50 mmHg
Mean % change of IOP versus control ([2]; Table 3, 3.0% gel, 1 hr): -4.9%
Mean IOP ([2]; Table 3, 3.0% gel, 1 hr): 40.8 mmHg
IOP (individual monkey) ([2]; Table 3, 3.0% gel, 3 hr): 41 mmHg and 20 mmHg and 30 mmHg and 57 mmHg and 32 mmHg and 45 mmHg
Mean % change of IOP versus control ([2]; Table 3, 3.0% gel, 3 hr): -14.0%
Mean IOP ([2]; Table 3, 3.0% gel, 3 hr): 37.5 mmHg
IOP (individual monkey) ([2]; Table 3, 3.0% gel, 7 hr): 37 mmHg and 23 mmHg and 25 mmHg and 55 mmHg and 33 mmHg and 40 mmHg
Mean % change of IOP versus control ([2]; Table 3, 3.0% gel, 7 hr): -18.5%
Mean IOP ([2]; Table 3, 3.0% gel, 7 hr): 35.5 mmHg
Mean % change of IOP [2, 9]: 0.0%
Mean IOP [2, 9]: 44.7 mmHg
IOP (individual monkey) [2, 10]: 38 mmHg and 55 mmHg and 37 mmHg and 42 mmHg and 50 mmHg and 46 mmHg
Mean % change of IOP ([2]; Table 4, 3.0% gel, 1 hr): -10.1%
Mean IOP ([2]; Table 4, 3.0% gel, 1 hr): 40.3 mmHg
IOP (individual monkey) [2, 11]: 37 mmHg and 50 mmHg and 32 mmHg and 30 mmHg and 53 mmHg and 40 mmHg
Mean % change of IOP ([2]; Table 4, 3.0% gel, 3 hr): -15.0%
Mean IOP ([2]; Table 4, 3.0% gel, 3 hr): 38.3 mmHg
IOP (individual monkey) [2, 12]: 33 mmHg and 47 mmHg and 29 mmHg and 21 mmHg and 45 mmHg and 55 mmHg
Mean % change of IOP ([2]; Table 4, 3.0% gel, 7 hr): -16.8%
Mean IOP ([2]; Table 4, 3.0% gel, 7 hr): 37.2 mmHg
IOP (individual monkey) [2, 13]: 35 mmHg and 55 mmHg and 28 mmHg and 38 mmHg and 32 mmHg
effectiveness for topical treatment of glaucoma (in words) ([2]; cynomologous monkeys): an effective treating composition for topical treatment of glaucoma
IOP (individual monkey) [3, 4]: 33 mmHg and 19 mmHg and 24 mmHg and 23 mmHg and 20 mmHg
Mean IOP [3, 4]: 25.3 mmHg
IOP (individual monkey) ([3]; Table 1, 1.0% gel, 3 hr): 34 mmHg and 20 mmHg and 25 mmHg and 19 mmHg and 38 mmHg
Mean % change of IOP ([3]; Table 1, 1.0% gel, 3 hr): +5.2%
Mean IOP ([3]; Table 1, 1.0% gel, 3 hr): 26.8 mmHg
IOP (individual monkey) ([3]; Table 1, 1.0% gel, 7 hr): 34 mmHg and 25 mmHg and 28 mmHg and 22 mmHg and 19 mmHg and 41 mmHg
Mean % change of IOP ([3]; Table 1, 1.0% gel, 7 hr): +11.1%
Mean IOP ([3]; Table 1, 1.0% gel, 7 hr): 28.2 mmHg
IOP (individual monkey) [3, 5]: 30 mmHg and 22 mmHg and 25 mmHg and 27 mmHg and 24 mmHg
Mean IOP [3, 5]: 25.0 mmHg
IOP (individual monkey) [3, 6]: 29 mmHg and 23 mmHg and 26 mmHg and 27 mmHg and 24 mmHg
Mean % change of IOP [3, 6]: +1.9%
Mean IOP [3, 6]: 25.3 mmHg
IOP (individual monkey) [3, 7]: 27 mmHg and 23 mmHg and 28 mmHg and 24 mmHg
Mean % change of IOP [3, 7]: +5.2%
Mean IOP [3, 7]: 26.0 mmHg
IOP (individual monkey) [3, 8]: 27 mmHg and 24 mmHg and 22 mmHg and 26 mmHg and 30 mmHg
Mean IOP [3, 8]: 25.5 mmHg
IOP (individual monkey) ([3]; Table 3, 3.0% gel, 1 hr): 25 mmHg and 29 mmHg and 24 mmHg and 30 mmHg
Mean % change of IOP ([3]; Table 3, 3.0% gel, 1 hr): +1.7%
Mean IOP ([3]; Table 3, 3.0% gel, 1 hr): 26.0 mmHg
IOP (individual monkey) ([3]; Table 3, 3.0% gel, 3 hr): 23 mmHg and 27 mmHg and 28 mmHg and 25 mmHg
Mean % change of IOP ([3]; Table 3, 3.0% gel, 3 hr): -0.4%
Mean IOP ([3]; Table 3, 3.0% gel, 3 hr): 25.2 mmHg
IOP (individual monkey) ([3]; Table 3, 3.0% gel, 7 hr): 23 mmHg and 25 mmHg and 20 mmHg and 29 mmHg and 26 mmHg
Mean % change of IOP ([3]; Table 3, 3.0% gel, 7 hr): -0.6%
Mean IOP ([3]; Table 3, 3.0% gel, 7 hr): 25.3 mmHg
Mean % change of IOP [3, 9]: 0.0%
Mean IOP [3, 9]: 23.3 mmHg
IOP (individual monkey) [3, 10]: 24 mmHg and 20 mmHg and 18 mmHg and 30 mmHg and 21 mmHg and 27 mmHg
Mean % change of IOP ([3]; Table 4, 3.0% gel, 1 hr): 3.3%
Mean IOP ([3]; Table 4, 3.0% gel, 1 hr): 23.8 mmHg
IOP (individual monkey) [3, 11]: 25 mmHg and 16 mmHg and 23 mmHg and 28 mmHg and 24 mmHg and 27 mmHg
Mean % change of IOP ([3]; Table 4, 3.0% gel, 3 hr): -1.8%
Mean IOP ([3]; Table 4, 3.0% gel, 3 hr): 22.7 mmHg
IOP (individual monkey) [3, 12]: 27 mmHg and 18 mmHg and 20 mmHg and 25 mmHg and 21 mmHg
Mean % change of IOP ([3]; Table 4, 3.0% gel, 7 hr): 5.5%
Mean IOP ([3]; Table 4, 3.0% gel, 7 hr): 24.3 mmHg
IOP (individual monkey) [3, 13]: 28 mmHg and 20 mmHg and 23 mmHg and 27 mmHg
